“Also recorded” adds a separate entry of the source.
Key:
HRF [1] = experiment: HRF binding affinity of heptamer peptides by ELISA (alanine scan of p2); conditions: p2 and its substituted heptamers m1-m7
From the text: In order to confirm the residues involved in the HRF binding affinity of the heptamer peptide of the present invention, the amino acid sequence of p2 was substituted with alanine (A), and only m5 was substituted with lysine (K). As a result, the following sequences were established: […]

Del-N11dTCTP = target: T1, Del-N11dTCTP (Rattus norvegicus, UniProt P63029); experiment: Inhibition of Del-N11dTCTP-induced IL-8 secretion by domain peptides in BEAS-2B cells; type: cell-based; conditions: Del-N11dTCTP 70 nM, peptide molar ratios 0~1, 24 hours, ELISA
T1 construct: made in house
T1 sequence (P63029 11-172 limits assumed): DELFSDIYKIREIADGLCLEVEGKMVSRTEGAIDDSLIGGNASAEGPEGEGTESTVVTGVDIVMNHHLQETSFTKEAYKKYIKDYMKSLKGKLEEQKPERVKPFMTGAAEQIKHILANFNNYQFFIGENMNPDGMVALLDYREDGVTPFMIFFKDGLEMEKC
Method: To investigate inhibitory effect of FL domain, Helix 2 domain, and Helix 3 domain on Del-N11dTCTP, the inventors synthesized FL domain (Ac-[…]-NH2) (SEQ. ID. NO: 1), Helix 2 domain (Ac-[…]-NH2) (SEQ. ID. NO: 11), and Helix 3 domain (Ac-[…]-NH2) (SEQ. ID. NO: 22) by using the synthetic peptides prepared with NH2-terminal acetylation and COOH-terminal amidation, followed by purification.
Particularly, BEAS-2B cells were treated with Del-N11dTCTP (70 nM) by the same manner as described in Experimental Example 1. At this time, the synthesized FL domain, Helix 2 domain, and Helix 3 domain were treated to the cells at different molar ratios (0˜1), followed by reaction for 30 minutes. Then, Del-N11dTCTP was added thereto. 24 hours later, the supernatant was obtained and the released IL-8 was quantified by ELISA.

HRF [2] = experiment: Phage clone ELISA for binding to immobilized HRF; conditions: wells coated with HRF or BSA (control)
Method: Particularly, HRF was dissolved in a coating buffer (0.1 M NaHCO 3, pH 8.6) at the concentration of 20 μg/ml, which was loaded in a polystyrene microtiter plate (50 ? /well), followed by coating at 4° C. for overnight and blocking non-specific binding with BSA. The plate was washed with 0.1% Tween/TBS (TBST) 6 times. […] The plate stood at room temperature for 1 hour. TBST was added thereto, and the plate stood for 5 minutes, followed by washing. The washing was performed once after one round of panning, 5 times after 2 and 3 rounds of panning, and 10 times after 4 rounds of panning. 50 ? of glycine/HCl buffer (pH 2.2) was added thereto, which stood for 5 minutes. Then, phages were eluted, and then neutralization was induced with 8 ? of 1 M Tris-HCl (pH 9.1). The eluted phage solution was added to 20 ? of ER2537 culture medium (OD600=0.5˜1), followed by culture in a 37° C. shaking incubator (rpm=200) for 2 hours. 100 ? of SB medium was added thereto, followed by culture for overnight with shaking (250 rpm). The culture solution was centrifuged at 10,000 rpm (4° C.) for 15 minutes. 100 ? of the obtained supernatant was added with 30 ? of 5×PEG/NaCl (20% PEG(w/v), 15% NaCl (w/v)), followed by dissolving for 5 minutes. The mixture was then left in ice for 30 minutes. The mixture was centrifuged at 10,000 rpm (4° C.) for 20 minutes and the supernatant was discarded. The obtained pellet was suspended in 1 ? of 3% BSA/TBS. After performing centrifugation at 14,000 rpm for 5 minutes, the supernatant was obtained and used for panning. Affinity purification and phage replication were repeated 4 times, followed by eluting phages. Each phage clone was obtained from the proper plate of the eluted phage, followed by ELISA. Those phage clones showing a specific affinity to HRF were separated, followed by sequencing to confirm the peptide sequence. Those phage display peptides showing dominant binding to HRF were selected and listed below:
That is, each phage plaque was added to 1 ? of the ER2537 culture medium (OD600=0.5˜1) cultured in SB medium, followed by culture in a 37° C. incubator (rpm=250) for 5 hours. 100 ? of each culture solution was added to 900 ? of SB medium, followed by culture for overnight. […]
Each phage solution separated above was diluted in an equal volume of 6% BSA/PBS, and 50 ? of the diluted solution was added to each well of the plastic well plate coated with HRF or BSA (control), which stood for 2 hours. […] After adding peroxidase substrate solution thereto (100 ? /well), OD405 was measured with an ELISA reader.
HRF was diluted serially by ⅕ fold each from the concentration of 20 μg/ ? […] The phage 2 solution diluted serially by ⅕ fold each (½, 1/10, 1/50, 1/250, and 1/1250 of the stock solution) was added thereto, followed by ELISA and OD405 was measured.

BEAS-2B cells [3] = experiment: GM-CSF secretion by f-TCTP, Δ-dTCTP and Del-N11dTCTP in BEAS-2B cells; type: cell-based; conditions: protein at 1, 5 or 10 μg/ml, 24 hours, ELISA
Method: (§1) To investigate the IL-8 and GM-CSF secretory activity of f-TCTP, Δ-dTCTP, and Del-N11dTCTP in BEAS-2B cells, the present inventors compared the activity of f-TCTP, Δ-dTCTP, and Del-N11dTCTP by measuring the secretion of IL-8 in BEAS-2B cells.
(§2) Particularly, BEAS-2B cells were cultured in a 48-well plate until the confluency reached to 70%. Then, the cells were washed with 1% penicillin-streptomycin/BEBM (Clonetics) twice. Each recombinant protein of the Δ-dTCTP separated in Example 1 of the invention, and the f-TCTP and Del-N11dTCTP constructed by the method described in Korean Patent Application No. 2006-0007663 was added thereto at the concentration of 1 μg/ ? , 5 μg/ ? , or 10 μg/ ? 24 hours later, the supernatant was obtained and the released IL-8 and GM-CSF were quantified by ELISA.

[4] = tested on: dTBP2 (dTCTP binding peptide 2); experiment: Affinity of TCTP proteins to immobilized biotinylated dTBP2 (ELISA); conditions: biotinylated dTBP2 0.01-10 μm on streptavidin plate; protein 0.2 μg/ml; ELISA 450/570 nm
Method: To investigate the affinity to dTBP2 of f-TCTP, Δ-dTCTP, and Del-N11dTCTP of the present invention, biotin was conjugated to the COOH-terminus of dTBP2 known to bind to HRF, followed by purification. The purified protein was immobilized in the plastic well coated with streptavidin, to which f-TCTP, Δ-dTCTP, and Del-N11dTCTP were added. Then, the binding strength of each protein was investigated.
Particularly, 50 ? of the biotinylated dTBTP2 dissolved in a buffer (TBS [25 mM Tris, 150 mM NaCl, pH 7.2], 0.1% BSA, 0.05% Tween-20) at different concentrations of 0.01, 0.1, 1, and 10 μm was added to Reacti-Bind Streptavidin Coated Polystyrene Plates (PIERCE), followed by reaction at room temperature for 2 hours. The plate was washed with a washing buffer three times. Each of f-TCTP, Δ-dTCTP, and Del-N11dTCTP was dissolved in TBS at the concentration of 0.2 μg/ ? . 60 ? of the mixture was added to each well of the plate, followed by reaction for 1 hour. The plate was washed with a washing buffer three times. 100 ? of anti-HRF rabbit antibody (Bio-Rad) diluted in a buffer (1:2000) was added to each well of the plate, which stood at room temperature for 30 minutes. The plate was washed with a washing buffer three times and with TBS once, to which HRP-conjugated anti-rabbit antibody (1:2000) was added (100 ? /well), which stood at room temperature for 30 minutes. The plate was washed with a washing buffer three times and with TBS once, to which […] (PIERCE), the peroxydase substrate solution, was added (100 ? /well). Color development was measured at 450 nm and 570 nm using an ELISA reader (Bio-Rad), and affinity was determined by the difference.

BEAS-2B cells [5] = experiment: IL-8 secretion by f-TCTP, Δ-dTCTP and Del-N11dTCTP in BEAS-2B cells; type: cell-based; conditions: protein at 1, 5 or 10 μg/ml, 24 hours, ELISA
Method: as §1, §2

AYVYPSM [m1] was tested, and the “HRF binding affinity (rank order)” value (HRF [1]) was “p2, m6>m7>m3>m2>fm5>M1>m4”.

With “Ac-KPERVKPFMTGAAEQIKHILANFN-NH2 [Helix 3 domain, ID; NO: 22]” the “inhibition of IL-8 secretion induced by Del-N11dTCTP” value (Del-N11dTCTP) was “inhibited more strongly by FL domain and Helix 2 domain than by Helix 3 domain”.

With “LVTYPLP (IgE-dependent histamine-releasing factor binding peptide) [ph1, ID; NO: 23]” the “binding of phage clone to HRF (ELISA, OD405)” value (HRF [2]) was “specifically bind to HRF”.

For WAVYPSM [m2], the “HRF binding affinity (rank order)” value (HRF [1]) was “p2, m6>m7>m3>m2>fm5>M1>m4”.

“WEFPGWM (IgE-dependent histamine-releasing factor binding peptide3) [ph4, ID; NO: 25]” was tested, and the “binding of phage clone to HRF (ELISA, OD405)” value (HRF [2]) was “specifically bind to HRF”.

WYAYPSM [m3] was tested, and the “HRF binding affinity (rank order)” value (HRF [1]) was “p2, m6>m7>m3>m2>fm5>M1>m4”.

WYVAPSM [m4] was tested, and the “HRF binding affinity (rank order)” value (HRF [1]) was “p2, m6>m7>m3>m2>fm5>M1>m4”.

With WYVYKSM [m5] the “HRF binding affinity (rank order)” value (HRF [1]) was “p2, m6>m7>m3>m2>fm5>M1>m4”.

In the case of WYVYPAM [m6], the “HRF binding affinity (rank order)” value (HRF [1]) is reported as “p2, m6>m7>m3>m2>fm5>M1>m4”.

With WYVYPSA [m7] the “HRF binding affinity (rank order)” value (HRF [1]) was “p2, m6>m7>m3>m2>fm5>M1>m4”.

For “f-TCTP: full-length TCTP, monomer form (SEQ. ID. NO: 17)”, the “secretion of GM-CSF” value (BEAS-2B cells [3]) was “Del-N11dTCTP was superior to f-TCTP and Δ-dTCTP”, the “affinity to dTBP2” value [4] was “Del-N11dTCTP had higher dTBP2 affinity than f-TCTP and Δ-dTCTP” and the “secretion of IL-8” value (BEAS-2B cells [5]) was “Del-N11dTCTP was superior to f-TCTP and Δ-dTCTP”.

B1: Δ-dTCTP: dimer form of FL domain-deleted TCTP (protein)
chain: MIIYRDLISHDEMFSDIYKIREIADGLCLEVEGKMVSGGITGVDIVMNHHLQETSFTKEAYKKYIKDYMKSIKGKLEEQRPERVKPFMTGAAEQIKHILANFKNYQFFIGENMNPDGMVALLDYREDGVTPYMIFFKDGLEMEKCLEHHHHHH
In the case of B1, the “secretion of GM-CSF” value (BEAS-2B cells [3]) is reported as “Del-N11dTCTP was superior to f-TCTP and Δ-dTCTP”, the “affinity to dTBP2” value [4] is reported as “low affinity; also recorded: Del-N11dTCTP had higher dTBP2 affinity than f-TCTP and Δ-dTCTP” and the “secretion of IL-8” value (BEAS-2B cells [5]) is reported as “Del-N11dTCTP was superior to f-TCTP and Δ-dTCTP”. The “secretion of IL-8” value (BEAS-2B cells [5]; listed as A-dTCTP) was “could not induce IL-8 secretion”.
